Measurements from patent US20230241037A1, “CROSS-LINKED MEDICATION FOR TREATMENT OF CORONAVIRAL INFECTION AND METHOD OF TREATMENT” (1GLOBE HEALTH INSTITUTE, NANJING, priority 2020, published 2023).

Columns and labels:
[1] = Standard CCK-8 cytotoxicity assay; assay type: cell-based; conditions: African green monkey, Vero E6 cells, 48 hours incubation
Experimental: Vero E6 African green monkey kidney cell line was obtained from American Type Culture Collection (ATCC, No. 1586) and maintained in MEM medium (MEM; Gibco Invitrogen) supplemented with 10% fetal bovine serum (FBS; Gibco Invitrogen) at 37° C. in an atmosphere of 5% CO2.
Standard CCK-8 assays were performed to measure the cytotoxic effect of the drug candidates on Vero E6 cells, which was performed in accordance with the manufacturer's instructions (Beyotime, China).

SARS-CoV-2 = assay: microbe, parasite or virus in culture; assay type: cell-based; conditions: for EC50: Severe acute respiratory syndrome coronavirus 2, Vero C1008, Vero E6 cells, MOI 0.05, 1 hour pretreatment, viral RNA in supernatant 48 hours post infection; for SI (selectivity index): from the CC50 and EC50 values in Vero E6 cells

| Compound | CC50 at 48 h [1] [µM] | EC50 (SARS-CoV-2) [µM] | SI (selectivity index) (SARS-CoV-2) |
| --- | --- | --- | --- |
| NC(=O)c1ncn([C@@H]2O[C@H](CO)[C@@H](O)[C@H]2O)n1 [RBV, 1-[(2R, 3R, 4S, 5R)-3,4-dihydroxy-5-(hydroxymethyl)oxolan-2-yl]-1H-1,2,4-triazole-3-carboxamide] | > 400 | 109 | >3.7 |
| CC(=O)Oc1ccccc1C(=O)Nc1ncc([N+](=O)[O-])s1 [NTZ, o-[N-(5-nitro-1,3-thiazol-2-yl)carbamoyl]phenol acetate)] | 36.8 | 2.1 | 17.5 |
